Reference: US20040142899A1, “Compositions and methods for enhanced biostability and altered biodistribution of oligonucleotides in mammals” (ISIS Pharmaceuticals, Inc., priority 1990, published 2004)

Experiments:
[1] = Nuclease stability in HeLa cytoplasmic/nuclear extracts; format: in vitro ADME; conditions: cell extract diluted 1.4 times; oligonucleotide 20 μM
Description: The nuclease stability of Oligomer 51 and the conjugate were tested against Oligomer 50 in HeLa cytoplasmic/nuclear extracts. The cell extract was diluted 1.4 times. The final concentration of oligonucleotide was 20 μM. The half lives of the oligonucleotides were as follows: Oligomer 50, 1.0 hrs.; Oligomer 51, 3.5 hrs.; and Conjugate 1, 3.6 hrs.

mouse ICAM-1 mRNA = test: ICAM-1 mRNA levels in LPS-treated mice (Northern analysis); format: in vivo; conditions: liver; 30 mg/kg i.v. 24 and 2 hours prior to LPS
Description: Mice were treated with oligonucleotides and examined as follows. […] Then, to induce ICAM-1 expression, bacterial lipopolysaccharide (LPS) was injected into the mice. After 2 hours, the mice were sacrificed, and particular organs, or specific portion thereof, were removed for further study. RNA was prepared from isolated, homogenized tissues essentially according to the guanidinium/CsCl purification method of Chirgwin et al. (Biochemistry, […], 18, 5294), electrophoresed and transferred to nylon membranes for hybridization studies (Northern analysis) according to methods well known in the art. In order to detect mouse ICAM-1 mRNA, a radiolabelled probe was prepared by random oligonucleotide-primed synthesis using a mouse ICAM-1 clone as a template. The blots were stripped and reprobed with a ^32P-labeled glyceraldehyde 3-phosphate dehydrogenase (G3PDH) probe (Clontech Laboratories, Inc., Palo Alto, Calif.) in order to confirm equal loading of RNA and to allow the levels of ICAM-1 transcripts to be normalized with regard to the G3PDH signals. Hybridizing bands were visualized by exposure to X-OMAT AR film and quantitated using a PHOSPHORIMAGER™ essentially according to the manufacturer's instructions (Molecular Dynamics, Sunnyvale, Calif.).

ICAM-1 protein = conditions: LPS-induced livers, HRP-conjugated secondary antibodies
complementary DNA = test: Melting analysis (Tm) of 5-LO antisense sequence oligomers against complementary DNA; format: binding; conditions: 4 μM each strand, 100 mM NaCl, 10 mM Phosphate, 0.1 mM EDTA, pH 7.0
Description: (§1) The relative ability of oligonucleotides to bind to their complementary strand is compared by determining the melting temperature of the hybridization complex of the oligonucleotide and its complementary strand. The melting temperature (Tm), a characteristic physical property of double helices, denotes the temperature in degrees centigrade at which 50% helical versus coil (un-hybridized) forms are present. Tm is measured by using the UV spectrum to determine the formation and breakdown (melting) of hybridization. Base stacking, which occurs during hybridization, is accompanied by a reduction in UV absorption (hypochromicity). Consequently, […]. The higher the Tm, the greater the strength of the binding of the strands. Non-Watson-Crick base pairing has a strong destabilizing effect on the Tm. Consequently, absolute fidelity of base pairing is necessary to have optimal binding of an antisense oligonucleotide to its targeted RNA.
(§2) The test oligonucleotides (either the phosphodiester, phosphorothioate, cholic acid conjugated phosphodiester, cholic acid conjugated phosphorothioate or 5′-aminolink intermediate phosphodiester or phosphorothioate oligonucleotides of the invention or otherwise) and either the complementary DNA or RNA oligonucleotides were incubated at a standard concentration of 4 μM for each oligonucleotide in buffer (100 mM NaCl, 10 mM Na-phosphate, pH 7.0, 0.1 mM EDTA). Samples were heated to 90 degrees C. and the initial absorbance taken using a Guilford Response II spectro-photometer (Corning, Inc., Corning, N.Y.). Samples were then slowly cooled to 15° C. and then the change in absorbance at 260 nm was monitored during the heat denaturation procedure. The temperature was elevated 1 degree/absorbance reading and the denaturation profile analyzed by taking the 1st derivative of the melting curve. Data was also analyzed using a two-state linear regression analysis to determine the Tm's. The results of these tests are shown in Table 3 as are the HPLC retention times of certain of the test compounds.

complementary RNA = test: Melting analysis (Tm) of 5-LO antisense sequence oligomers against complementary RNA; format: binding; conditions: 4 μM each strand, 100 mM NaCl, 10 mM Phosphate, 0.1 mM EDTA, pH 7.0
Description: as §1, §2

P-glycoprotein = P-glycoprotein expression by Western blotting in MDR 3T3 cells; format: cell-based, human; conditions: maximum only after 72 hours exposure
Description: Transfected MDR NIH 3T3 cells were grown and treated with oligonucleotides as described in Example (9)(B). In order to measure P-glycoprotein expression by Western blotting, cells were seeded in 60 mm dishes at 1.2×10^6 per dish and incubated for 24 hours in serum containing medium. The cells were treated with the oligomers for various times in serum free medium as described above. Cells were then extracted in lysis buffer (20 mM Tris, pH 7.5, 2 mM EDTA, 500 mM EGTA, 2 mM PMSF, 1 mM DTT, aprotonin (10 ug/ml), 0.5% Triton-X) and sonicated briefly. The lysate was spun in a microfuge tube for 20 minutes at 4° C. and the resulting supernatant was checked for protein content. Equal amounts of protein (usually 20 ug) were mixed with SDS sample buffer and boiled. Protein samples were separated by 8% SDS PAGE and the resolved proteins were electrophoretically transferred onto polyvinyllidene fluoride membranes (Millipore, Bedford, Mass.). The membranes were blocked (with 3% BSA, 2% non fat dry milk in PBS) and then treated with 2 ug/ml C219 anti-P-glycoprotein antibody (Signet, Dedham, Mass.). After washing three times with 0.1% Tween 20, the membranes were incubated with rabbit anti-mouse antibody (Cappel, Durham, N.C.). Immunoreactive proteins were visualized either by ECL (Enhanced Chemiluminescence, Amersham, Arlington Heights, Ill.) or with ^125I secondary antibodies.

MDR1 mRNA = MDR1 mRNA expression by Northern blotting in MDR 3T3 cells; format: cell-based, human; conditions: for MDR1 mRNA Level (arbitrary units) / % Control (MDR1 mRNA): oligonucleotide 1 μm, 24 hours, with Lipofectin; for MDR1 mRNA Level (arbitrary units): serum free medium; for % Control (MDR1 mRNA): control = untreated cells
Description: NIH 3T3 cells transfected with a plasmid containing the human MDR1 gene (pSK1 MDR) have been previously described (Kane et al., Gene, 1989, 84, 439). These cells have proven to be useful models for the study of multi-drug resistance phenomena. Cells were grown in DMEM media containing 10% fetal bovine serum (FBS) and 60 ng/ml colchicine in an atmosphere of 95% air, 5% CO2.
Cells were grown in […] flasks.
To measure MDR1 mRNA expression by Northern blotting, total cellular RNA was isolated by lysis in 4M guanidium isothiocyanate followed by a cesium chloride gradient, and the RNA was resolved on 1.2% agarose gels containing 1.2% formaldehyde and transferred to nitrocellulose membranes (Dean et al., J. Biol. Chem., 1994, 269, 16416). The blots were hybridized with a ^32P radiolabeled human MDR1 cDNA probe. The MDR1 cDNA probe was isolated by performing a polymerase chain reaction on the pSK1 MDR plasmid, as described previously (Alahari et al., Nucl. Acids Res., 1993, 21, 4079). The following oligonucleotide primers were used for PCR: […]
The resulting fragment was checked on an agarose gel and was radiolabeled with ^32P-dCTP using a commercially available random primer labeling kit (Amersham, Arlington Heights, Ill.) according to the manufacturer's instructions. The filters were hybridized overnight in hybridization buffer (25 mM KPO4, pH 7.4; 5×SSC; 5×Denhardt's solution, 100 ug/ml Salmon sperm DNA and 50% formamide) (Alahari et al., Nucl. Acids Res., 1993, 21, 4079). This was followed by two washes with 1×SSC, 0.1% SDS and two washes with 0.25×SSC, 0.1% SDS. Hybridizing bands were visualized by exposure to X-OMAT AR film and quantitated using a PhosphorImager™ (Molecular Dynamics, Sunnyvale, Calif.). To confirm equal loading of RNA, the blots were stripped and reprobed with a ^32P-labeled beta-actin probe (Clontech, Palo Alto, Calif).
In initial experiments, the MDR 3T3 cells were exposed to 1.0 μm concentrations of several different antisense oligonucleotides, or control oligonucleotides, in the presence of 20 ug/ml LIPOFECTIN® for 24 hours. […] NIH 3T3 cells transfected with pSK1 MDR plasmid were grown to 90% confluence and treated with oligonucleotide (1 μm) for 24 hours in the presence of Lipofectin® in serum free medium. Total RNA was isolated and fractionated on agarose formaldehyde gels and blotted onto nitrocellulose membranes. These membranes were probed with a ^32P radiolabeled 1.0 kb MDR1 cDNA, and then stripped and reprobed with a ^32P radiolabeled beta-actin cDNA probe to confirm equal loading of RNA, allowing the levels of MDR1 transcripts to be normalized with regard to the beta-actin bands. Transcript levels were quantitated using a PHOSPHORIMAGER™ (Molecular Dynamics, Sunnyvale, Calif.); the values are expressed in arbitrary units (the beta-actin transcripts were essentially constant).

## 5′-GCC-TTT-CGC-GAC-CCA-ACA-CU [Oligomer 50, reference compound]
[1]
  half life: 1.0 h

## 5′-GCC-TTT-CGC-GAC-CCA-ACA-CU* [Oligomer 51]
[1]
  half life: 3.5 h

## 5′-GCG-TTG-CTC-TTC-TTC-TTG-CG [ISIS 13293, reference compound]
Mouse ICAM-1 mRNA
  reduction of hepatic ICAM-1 mRNA relative to LPS without oligonucleotide: no apparent effect
ICAM-1 protein
  ICAM-1 staining of liver sections: appear quite dark

## 5′-TCC-AGG-TGT-CCG-CAT-C-3′ (antisense TCCAGGTGTCCGCATC; 5' cholic acid conjugate, chemistry not fully specified) [Oligomer 36, 5′-terminus cholic acid conjugate, phosphodiester]
Complementary DNA
  Tm DNA: 63.4 degrees centigrade
Complementary RNA
  Tm RNA: 62.4 degrees centigrade

## 5′-TCC-AGG-TGT-CCG-CAT-C-3′ (antisense TCCAGGTGTCCGCATC; phosphodiester, phosphorothioate or 5'-aminolink variants, which one is not given here, further chemistry not given here) [Oligomer 32, parent 5-LO antisense compound, normal phosphodiester linkages, reference compound]
Complementary DNA; listed as 32
  Tm DNA: 62.6 degrees centigrade
Complementary RNA; listed as 32
  Tm RNA: 62.0 degrees centigrade

## 5′-TCC-AGG-TGT-CCG-CAT-C-3′ (antisense TCCAGGTGTCCGCATC; phosphodiester, phosphorothioate or 5'-aminolink variants, which one is not given here, further chemistry not given here) [Oligomer 33, reference compound]
Complementary DNA; listed as 33
  Tm DNA: 55.4 degrees centigrade
Complementary RNA; listed as 33
  Tm RNA: 54.9 degrees centigrade

## 5′-TCC-AGG-TGT-CCG-CAT-C-3′ (antisense TCCAGGTGTCCGCATC; phosphodiester, phosphorothioate or 5'-aminolink variants, which one is not given here, further chemistry not given here) [Oligomer 37]
Complementary DNA; listed as 37
  Tm DNA: 56.3 degrees centigrade
Complementary RNA; listed as 37
  Tm RNA: 55.8 degrees centigrade

## CGG-TCC-CCT-TCA-AGA-TCC-AT (CGGTCCCCTTCAAGATCCAT; all phosphorothioate, sugars by position and methylation of C not given here) [ISIS 10440]
P-glycoprotein
  reduction of P-glycoprotein (Western assays): about 50%

## CTC-CCG-CAC-ATC-TCC-GCG-CC (CTCCCGCACATCTCCGCGCC; all phosphorothioate, sugars by position and methylation of C not given here) [ISIS 10222, reference compound]
MDR1 mRNA
  MDR1 mRNA Level (arbitrary units): 406,522 arbitrary units
  % Control (MDR1 mRNA): 86%

## GAG-CCG-CTA-CTC-GAA-TGA-GC (GAGCCGCTACTCGAATGAGC; all phosphorothioate, sugars by position and methylation of C not given here) [ISIS 5990]
MDR1 mRNA
  MDR1 mRNA Level (arbitrary units): 443,478 arbitrary units
  % Control (MDR1 mRNA): 94%

## GTT-CAC-TGG-CGC-TTT-GTT-CC (GTTCACTGGCGCTTTGTTCC; all phosphorothioate, sugars by position and methylation of C not given here) [ISIS 5998]
MDR1 mRNA; parent phosphorothioate, Example 9(B)
  effect on MDR1 mRNA expression: unpromising effect on MDR1 mRNA expression
